Earlier results in patent US10772323B2, “Benzoic acid herbicide composition” (NUFARM AUSTRALIA LIMITED, priority 2015, dated 2020).

Conditions: acid form; 25° C.

## COc1c(Cl)ccc(Cl)c1C(=O)O [dicamba, 3,6-dichloro-2-methoxybenzoic acid]
  water solubility: about 4500 mg/L
